From publication PMC9917560, “Design, Synthesis and Antimicrobial Evaluation of New N-(1-Hydroxy-1,3-dihydrobenzo[c][1,2]oxaborol-6-yl)(hetero)aryl-2-carboxamides as Potential Inhibitors of Mycobacterial Leucyl-tRNA Synthetase” (International Journal of Molecular Sciences, 2023)
Values after ≈ are worked out from the molar mass of the structure shown. Like-named read-outs stand apart in the source and are kept apart here.

Assays:
[1] = system: Mycobacterium tuberculosis H37Ra ITM-M006710 (ATCC 9431); assay: Antimycobacterial microdilution (resazurin) vs Mtb H37Ra; type: cell-based; settings: Middlebrook 7H9, resazurin, recalculated from µg/mL, read-out: MIC Mtb H37Ra
[2] = system: Mycobacterium tuberculosis H37Rv CNCTC My 331/88 (ATCC 27294); assay: Microplate Alamar Blue assay vs Mtb H37Rv; type: cell-based; settings: Mycobacterium tuberculosis, pH 6.6, MABA, Middlebrook 7H9 pH 6.6, recalculated from µg/mL; read-out: MIC Mtb H37Rv
[3] = system: Mycobacterium kansasii DSM 44,162 (ATCC 12478); assay: Antimycobacterial microdilution (resazurin) vs M. kansasii; type: cell-based; settings: Middlebrook 7H9, resazurin, read-out: MIC M. kansasii
[4] = system: Mycobacterium avium DSM 44,156 (ATCC 25291); assay: Antimycobacterial microdilution (resazurin) vs M. avium; type: cell-based; settings: Mycobacterium avium, Middlebrook 7H9, resazurin; read-out: MIC M. avium
[5] = system: Mycolicibacterium aurum DSM 43,999 (ATCC 23366); assay: Antimycobacterial microdilution (resazurin) vs M. aurum; type: cell-based; settings: Middlebrook 7H9, resazurin, read-out: MIC M. aurum
[6] = system: Mycolicibacterium smegmatis DSM 43,465 (ATCC 607); assay: Antimycobacterial microdilution (resazurin) vs M. smegmatis; type: cell-based; settings: Middlebrook 7H9, resazurin, read-out: MIC M. smeg.
[7] = system: Mtb IZAK (MDR clinical isolate); assay: microbe, parasite or virus in culture; type: cell-based; settings: Mycobacterium tuberculosis, read-out: MIC Mtb IZAK
[8] = system: Mtb MATI (MDR clinical isolate); assay: microbe, parasite or virus in culture; type: cell-based; settings: Mycobacterium tuberculosis, read-out: MIC Mtb MATI
[9] = system: Staphylococcus aureus subsp. aureus CCM 4223 (ATCC 29213); assay: Antibacterial microdilution broth (EUCAST); type: cell-based; settings: read-out: MIC Staphylococcus aureus subsp. aureus
[10] = system: methicillin-resistant Staphylococcus aureus subsp. aureus (MRSA) CCM 4750 (ATCC 43300); assay: microbe, parasite or virus in culture; type: cell-based; settings: read-out: MIC Methicillin-resistant Staphylococcus aureus subsp. aureus
[11] = system: Staphylococcus epidermidis CCM 4418 (ATCC 12228); assay: Antibacterial microdilution broth (EUCAST); type: cell-based; settings: read-out: MIC Staphylococcus epidermidis
[12] = system: Enterococcus faecalis CCM 4224 (ATCC 29212); assay: Antibacterial microdilution broth (EUCAST); type: cell-based; settings: read-out: MIC Enterococcus faecalis
[13] = system: Escherichia coli CCM 3954 (ATCC 25922); assay: Antibacterial microdilution broth (EUCAST); type: cell-based; settings: Escherichia coli, read-out: MIC Escherichia coli
[14] = system: Klebsiella pneumoniae CCM 4415 (ATCC 10031); assay: Antibacterial microdilution broth (EUCAST); type: cell-based; settings: Klebsiella pneumoniae, read-out: MIC Klebsiella pneumoniae
[15] = system: Acinetobacter baumannii DSM 30007 (ATCC 19606); assay: Antibacterial microdilution broth (EUCAST); type: cell-based; settings: read-out: MIC Acinetobacter baumannii
[16] = system: Pseudomonas aeruginosa CCM 3955 (ATCC 27853); assay: Antibacterial microdilution broth (EUCAST); type: cell-based; settings: read-out: MIC Pseudomonas aeruginosa
[17] = system: Candida albicans CCM 8320 (ATCC 24433); assay: Antifungal microdilution broth (EUCAST); type: cell-based; settings: Candida albicans, read-out: MIC Candida albicans
[18] = system: Candida krusei CCM 8271 (ATCC 6258); assay: Antifungal microdilution broth (EUCAST); type: cell-based; settings: Pichia kudriavzevii, read-out: MIC Candida krusei
[19] = system: Candida parapsilosis CCM 8260 (ATCC 22019); assay: Antifungal microdilution broth (EUCAST); type: cell-based; settings: Lodderomyces parapsilosis, read-out: MIC Candida parapsilosis
[20] = system: Candida tropicalis CCM 8264 (ATCC 750); assay: Antifungal microdilution broth (EUCAST); type: cell-based; settings: read-out: MIC Candida tropicalis
[21] = system: Aspergillus fumigatus ATCC 204305; assay: Antifungal microdilution broth (EUCAST); type: cell-based; settings: Aspergillus fumigatus, ATCC204305, read-out: MIC Aspergillus fumigatus
[22] = system: Aspergillus flavus CCM 8363; assay: Antifungal microdilution broth (EUCAST); type: cell-based; settings: Aspergillus flavus, CCM8363, read-out: MIC Aspergillus flavus
[23] = system: Lichtheimia corymbifera CCM 8077; assay: Antifungal microdilution broth (EUCAST); type: cell-based; settings: Lichtheimia corymbifera, CCM8077, read-out: MIC Lichtheimia corymbifera
[24] = system: Trichophyton interdigitale CCM 8377 (ATCC 9533); assay: Antifungal microdilution broth (EUCAST); type: cell-based; settings: Trichophyton interdigitale, read-out: MIC Trichophyton interdigitale
HepG2 cell line = assay: Cytotoxicity screening, CellTiter 96 assay; settings: for IC50: Homo sapiens, HepG2, 24 h, read-out: IC50 HepG2
Mtb laboratory ID IZAK = type: cell-based, Mycobacterium tuberculosis; settings: strain IZAK
Mtb laboratory ID MATI = type: cell-based, Mycobacterium tuberculosis; settings: strain MATI

## O=C(Nc1ccc2c(c1)B(O)OC2)c1cnc2ccccc2n1 [Compound 17, N-(1-hydroxy-1,3-dihydrobenzo[c][1,2]oxaborol-6-yl)quinoxaline-2-carboxamide]
[1]
  MIC: > 819 µM
[2]
  MIC: 20.5 µM (≈ 6.25 µg/mL)
[3]
  MIC: 25.6 µM (≈ 7.81 µg/mL)
[4]
  MIC: 102 µM (≈ 31.3 µg/mL)
[5]
  MIC: 12.8 µM (≈ 3.91 µg/mL)
[6]
  MIC: 12.8 µM (≈ 3.91 µg/mL)
[7]
  MIC: 41 µM (≈ 12.5 µg/mL)
[8]
  MIC: 41 µM (≈ 12.5 µg/mL)
[9]; 24h incubation
  MIC: > 500 µM
[9]; 48h incubation
  MIC: > 500 µM
[10]; 24 h
  MIC: > 500 µM
[10]; 48 h
  MIC: > 500 µM
[11]; 24h incubation
  MIC: > 500 µM
[11]; 48h incubation
  MIC: > 500 µM
[12]; 24h incubation
  MIC: > 500 µM
[12]; 48h incubation
  MIC: > 500 µM
[13]; 24h incubation
  MIC: > 500 µM
[13]; 48h incubation
  MIC: > 500 µM
[14]; 24h incubation
  MIC: > 500 µM
[14]; 48h incubation
  MIC: > 500 µM
[15]; 24h incubation
  MIC: > 500 µM
[15]; 48h incubation
  MIC: > 500 µM
[16]; 24h incubation
  MIC: > 500 µM
[16]; 48h incubation
  MIC: > 500 µM
[17]; 24h incubation
  MIC: > 500 µM
[17]; 48h incubation
  MIC: > 500 µM
[18]; 24h incubation
  MIC: > 500 µM
[18]; 48h incubation
  MIC: > 500 µM
[19]; 24h incubation
  MIC: > 500 µM
[19]; 48h incubation
  MIC: > 500 µM
[20]; 24h incubation
  MIC: > 500 µM
[20]; 48h incubation
  MIC: > 500 µM
[21]; 24h incubation
  MIC: > 500 µM
[21]; 48h incubation
  MIC: > 500 µM
[22]; 24h incubation
  MIC: > 500 µM
[22]; 48h incubation
  MIC: > 500 µM
[23]; 24h incubation
  MIC: > 500 µM
[23]; 48h incubation
  MIC: > 500 µM
[24]; 72h incubation
  MIC: > 500 µM
[24]; 120h incubation
  MIC: > 500 µM
HepG2 cell line
  IC50: > 250 µM
HepG2 cell line; tested up to 500 µM (2, 3), 250 µM (12, 17), 100 µM (6, 7, 11) because of solubility
  toxicity to HepG2 up to highest tested concentration: non-toxic

## O=C(Nc1ccc2c(c1)B(O)OC2)c1cncc(Cl)n1 [Compound 4, 6-chloro-N-(1-hydroxy-1,3-dihydrobenzo[c][1,2]oxaborol-6-yl)pyrazine-2-carboxamide]
[1]
  MIC: 108 µM (≈ 31.3 µg/mL)
[2]
  MIC: 86.4 µM (≈ 25 µg/mL)
[3]
  MIC: 27 µM (≈ 7.81 µg/mL)
[4]
  MIC: 27 µM (≈ 7.81 µg/mL)
[5]
  MIC: 13.5 µM (≈ 3.91 µg/mL)
[6]
  MIC: 27 µM (≈ 7.81 µg/mL)
[7]
  MIC: 86.4 µM (≈ 25 µg/mL)
[8]
  MIC: 86.4 µM (≈ 25 µg/mL)
[9]; 24h incubation
  MIC: 125 µM (≈ 36.2 µg/mL)
[9]; 48h incubation
  MIC: 125 µM (≈ 36.2 µg/mL)
[10]; 24 h
  MIC: 250 µM (≈ 72.4 µg/mL)
[10]; 48 h
  MIC: 250 µM (≈ 72.4 µg/mL)
[11]; 24h incubation
  MIC: 500 µM (≈ 145 µg/mL)
[11]; 48h incubation
  MIC: 500 µM (≈ 145 µg/mL)
[12]; 24h incubation
  MIC: > 500 µM
[12]; 48h incubation
  MIC: > 500 µM
[13]; 24h incubation
  MIC: > 500 µM
[13]; 48h incubation
  MIC: > 500 µM
[14]; 24h incubation
  MIC: > 500 µM
[14]; 48h incubation
  MIC: > 500 µM
[15]; 24h incubation
  MIC: > 500 µM
[15]; 48h incubation
  MIC: > 500 µM
[16]; 24h incubation
  MIC: > 500 µM
[16]; 48h incubation
  MIC: > 500 µM
[17]; 24h incubation
  MIC: > 500 µM
[17]; 48h incubation
  MIC: > 500 µM
[18]; 24h incubation
  MIC: > 500 µM
[18]; 48h incubation
  MIC: > 500 µM
[19]; 24h incubation
  MIC: > 500 µM
[19]; 48h incubation
  MIC: > 500 µM
[20]; 24h incubation
  MIC: > 500 µM
[20]; 48h incubation
  MIC: > 500 µM
[21]; 24h incubation
  MIC: > 500 µM
[21]; 48h incubation
  MIC: > 500 µM
[22]; 24h incubation
  MIC: > 500 µM
[22]; 48h incubation
  MIC: > 500 µM
[23]; 24h incubation
  MIC: > 500 µM
[23]; 48h incubation
  MIC: > 500 µM
[24]; 72h incubation
  MIC: > 500 µM
[24]; 120h incubation
  MIC: > 500 µM
other
  melting point: 250.9 to 252.4 °C
HepG2 cell line
  IC50: > 1000 µM

## CC[C@@H](CO)NCCN[C@@H](CC)CO [EMB, ethambutol]
[2]
  MIC: 1.91 µM (≈ 0.39 µg/mL)
[7]
  MIC: 7.64 µM (≈ 1.56 µg/mL)
[8]
  MIC: 7.64 µM (≈ 1.56 µg/mL)
Mtb laboratory ID IZAK; CLSI 2020
  Concentration: 2.45 µM
Mtb laboratory ID IZAK; CLSI breakpoints 2020
  Susceptibility: sensitive
Mtb laboratory ID MATI; CLSI 2021
  Concentration: 2.45 µM
Mtb laboratory ID MATI; CLSI breakpoints 2021
  Susceptibility: sensitive

## O=C(Nc1ccc2c(c1)B(O)OC2)c1cnc(Cl)cn1 [Compound 5, 5-chloro-N-(1-hydroxy-1,3-dihydrobenzo[c][1,2]oxaborol-6-yl)pyrazine-2-carboxamide]
[1]
  MIC: 27 µM (≈ 7.81 µg/mL)
[2]
  MIC: 21.6 µM (≈ 6.25 µg/mL)
[3]
  MIC: 108 µM (≈ 31.3 µg/mL)
[4]
  MIC: 54 µM (≈ 15.6 µg/mL)
[5]
  MIC: 13.5 µM (≈ 3.91 µg/mL)
[6]
  MIC: 54 µM (≈ 15.6 µg/mL)
[7]
  MIC: 43.2 µM (≈ 12.5 µg/mL)
[8]
  MIC: 43.2 µM (≈ 12.5 µg/mL)
[9]; 24h incubation
  MIC: > 500 µM
[9]; 48h incubation
  MIC: > 500 µM
[10]; 24 h
  MIC: > 500 µM
[10]; 48 h
  MIC: > 500 µM
[11]; 24h incubation
  MIC: > 500 µM
[11]; 48h incubation
  MIC: > 500 µM
[12]; 24h incubation
  MIC: > 500 µM
[12]; 48h incubation
  MIC: > 500 µM
[13]; 24h incubation
  MIC: > 500 µM
[13]; 48h incubation
  MIC: > 500 µM
[14]; 24h incubation
  MIC: > 500 µM
[14]; 48h incubation
  MIC: > 500 µM
[15]; 24h incubation
  MIC: > 500 µM
[15]; 48h incubation
  MIC: > 500 µM
[16]; 24h incubation
  MIC: > 500 µM
[16]; 48h incubation
  MIC: > 500 µM
[17]; 24h incubation
  MIC: > 500 µM
[17]; 48h incubation
  MIC: > 500 µM
[18]; 24h incubation
  MIC: > 500 µM
[18]; 48h incubation
  MIC: > 500 µM
[19]; 24h incubation
  MIC: > 500 µM
[19]; 48h incubation
  MIC: > 500 µM
[20]; 24h incubation
  MIC: > 500 µM
[20]; 48h incubation
  MIC: > 500 µM
[21]; 24h incubation
  MIC: > 500 µM
[21]; 48h incubation
  MIC: > 500 µM
[22]; 24h incubation
  MIC: > 500 µM
[22]; 48h incubation
  MIC: > 500 µM
[23]; 24h incubation
  MIC: > 500 µM
[23]; 48h incubation
  MIC: > 500 µM
[24]; 72h incubation
  MIC: > 500 µM
[24]; 120h incubation
  MIC: > 500 µM
other
  melting point: 233.8 to 235.3 °C
HepG2 cell line
  IC50: 82.4 µM
